Test results taken from paper PMC3609710 (Journal of chromatography. A, 2012).
Like-named read-outs stand apart in the source and are kept apart here.

Format: in vivo, mouse (C57Bl/6)
Conditions: mouse serum, single IP injection of T1AM 25 mg/kg

SMILES | serum concentration (10 minutes post-injection) [µM] | serum concentration (20 minutes post-injection) [µM] | greatest serum concentration (at 6 hours post-injection) [µM]
O=C(O)Cc1ccc(Oc2ccc(O)cc2)c(I)c1 [TA1, 3-iodothyroacetic acid] | 17.7 ± 4.6 | 23.5 ± 13.2 | –
NCCc1ccc(Oc2ccc(O)cc2)c(I)c1 [T1AM, 3-Iodothyronamine] | 16.6 ± 8.5 | 5.6 ± 3.1 | –
O=C(O)Cc1ccc(Oc2ccc(O)cc2)cc1 [TA0, thyroacetic acid] | – | – | 0.77 ± 0.16
